Patent US20260092061A1, “COMPOUNDS FOR TARGETED PROTEIN DEGRADATION” (Amphista Therapeutics Limited, priority 2022, published 2026)

Target: T1, BRD9 (Homo sapiens, UniProt Q9H8M2)
T1 sequence (Q9H8M2 1-597): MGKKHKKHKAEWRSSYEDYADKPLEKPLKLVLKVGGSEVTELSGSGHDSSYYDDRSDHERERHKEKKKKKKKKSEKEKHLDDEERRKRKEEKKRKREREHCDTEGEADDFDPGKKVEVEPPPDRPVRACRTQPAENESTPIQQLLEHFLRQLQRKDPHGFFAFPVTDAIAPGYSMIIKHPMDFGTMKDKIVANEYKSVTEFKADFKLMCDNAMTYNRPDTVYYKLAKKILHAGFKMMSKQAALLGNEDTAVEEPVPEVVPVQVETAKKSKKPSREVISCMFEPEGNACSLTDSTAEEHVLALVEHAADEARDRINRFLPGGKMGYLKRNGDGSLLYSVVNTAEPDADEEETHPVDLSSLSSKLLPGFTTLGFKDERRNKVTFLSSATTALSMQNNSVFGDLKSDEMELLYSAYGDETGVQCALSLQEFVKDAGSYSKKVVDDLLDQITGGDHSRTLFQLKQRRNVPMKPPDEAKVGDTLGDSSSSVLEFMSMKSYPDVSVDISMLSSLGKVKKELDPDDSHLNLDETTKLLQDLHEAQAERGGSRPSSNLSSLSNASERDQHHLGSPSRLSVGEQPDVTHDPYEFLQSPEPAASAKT
Test: Degradation of BRD9 (IF), immunofluorescence in MV4-11 cells, 24 hours (Assay Protocol 2)
Assay type: cell-based
Design: A suspension of MV4-11 cells (ATCC CRL-9591) was prepared; host or cells: MV4-11
Conditions: BRD9 degradation; for DC50: Assay protocol 2, read-out: DC50; for Dmax: MV4-11, Assay protocol 2, read-out: Dmax
Summary of the method: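 % BRD9 remaining, scaled between DMSO (high) and 100 nM CFT-8634 (low) control wells, derives from mean Alexa 647 contrast in central nuclei by high-content imaging. MV4-11 cells had 24 h compound exposure at 37° C. before PFA fixation, Triton permeabilisation and anti-BRD9 E4Q3F immunostaining.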

Compound	DC50	Dmax
COc1cc(-c2cn(C)c(=O)c(C)c2C)cc(OC)c1CN1CCCN(Cc2ccc3c(c2)[C@@H](C)N(C(=O)/C(C#N)=C/C(C)(C)C)CC3)CC1 (single isomer, unassigned) [Compound C107]	0.01 to 0.025 µM	40 to 70%
COc1cc(-c2cn(C)c(=O)c(C)c2C)cc(OC)c1CN1CCC(COc2cccc3c2CCN(C(=O)/C(C#N)=C/C(C)(C)C)C3C)CC1 (mixture of isomers) [Compound B86, (E/Z)-2-(5-((1-(2,6-dimethoxy-4-(1,4,5-trimethyl-6-oxo-1,6-dihydropyridin-3-yl)benzyl)piperidin-4-yl)methoxy)-1-methyl-1,2,3,4-tetrahydroisoquinoline-2-carbonyl)-4,4-dimethylpent-2-enenitrile]	0.01 to 0.025 µM	40 to 70%
COc1cc(-c2cn(C)c(=O)c(C)c2C)cc(OC)c1CN1CCN(Cc2cccc3c2CCN(C(=O)/C(C#N)=C/C(C)(C)C)C3C(C)C)CC1 (mixture of isomers) [Compound C7, (E/Z)-2-(5-((4-(2,6-dimethoxy-4-(1,4,5-trimethyl-6-oxo-1,6-dihydropyridin-3-yl)benzyl)piperazin-1-yl)methyl)-1-isopropyl-1,2,3,4-tetrahydroisoquinoline-2-carbonyl)-4,4-dimethylpent-2-enenitrile]	< 0.00125 µM	> 75%
COc1cc(-c2cn(C)c(=O)c(C)c2C)cc(OC)c1CN1CCC(Oc2cccc3c2CCN(C(=O)/C(C#N)=C/c2ccc(C(F)(F)F)cn2)C3C)CC1 (mixture of isomers) [Compound B64, (E/Z)-2-(5-((1-(2,6-dimethoxy-4-(1,4,5-trimethyl-6-oxo-1,6-dihydropyridin-3-yl)benzyl)piperidin-4-yl)oxy)-1-methyl-1,2,3,4-tetrahydroisoquinoline-2-carbonyl)-3-(5-(trifluoromethyl)pyridin-2-yl)acrylonitrile]	< 0.00125 µM	> 75%
COc1cc(-c2cn(C)c(=O)c(C)c2C)cc(OC)c1CN1CCN(Cc2cccc3c2CCN(C(=O)/C(C#N)=C/C(C)(C)C)[C@@H]3C)[C@@H](C)C1 (single isomer, unassigned) [Compound B198]	0.00125 to 0.01 µM	> 75%
COc1cc(-c2cn(C)c(=O)c(C)c2C)cc(OC)c1CN1CCN(Cc2ccc3c(c2)C(C)N(C(=O)/C(C#N)=C/C(C)(C)C)CC3)C2(CC2)C1 (mixture of isomers) [Compound C106, (E/Z)-2-(7-((7-(2,6-dimethoxy-4-(1,4,5-trimethyl-6-oxo-1,6-dihydropyridin-3-yl)benzyl)-4,7-diazaspiro[2.5]octan-4-yl)methyl)-1-methyl-1,2,3,4-tetrahydroisoquinoline-2-carbonyl)-4,4-dimethylpent-2-enenitrile]	< 0.00125 µM	> 75%
COc1cc(-c2cn(C)c(=O)c(C)c2C)cc(OC)c1CN1CCC2(CC1)CCN(c1ccc3c(c1)[C@H](C)N(C(=O)/C(C#N)=C/C(C)(C)C)CC3)C2 (single isomer, unassigned) [Compound C66]	0.00125 to 0.01 µM	40 to 70%
COc1cc(-c2cn(C)c(=O)c(C)c2C)cc(OC)c1CN1CCN(Cc2ccc3c(c2)CN(C(=O)/C(C#N)=C/C(C)(C)C)CC3)C2(CC2)C1 [Compound C1, (E/Z)-2-(7-((7-(2,6-dimethoxy-4-(1,4,5-trimethyl-6-oxo-1,6-dihydropyridin-3-yl)benzyl)-4,7-diazaspiro[2.5]octan-4-yl)methyl)-1,2,3,4-tetrahydroisoquinoline-2-carbonyl)-4,4-dimethylpent-2-enenitrile]	< 0.00125 µM	> 75%
COc1cc(-c2cn(C)c(=O)c(C)c2C)cc(OC)c1CN1CCN(Cc2ccc3c(c2)[C@@H](C)N(C(=O)/C(C#N)=C/C(C)(C)CF)CC3)C2(CC2)C1 (single isomer, unassigned) [Compound B202, (E/Z)-2-(7-((7-(2,6-dimethoxy-4-(1,4,5-trimethyl-6-oxo-1,6-dihydropyridin-3-yl)benzyl)-4,7-diazaspiro[2.5]octan-4-yl)methyl)-1-methyl-1,2,3,4-tetrahydroisoquinoline-2-carbonyl)-5-fluoro-4,4-dimethylpent-2-enenitrile]	< 0.00125 µM	> 75%
COc1cc(-c2cn(C)c(=O)c(C)c2C)cc(OC)c1CN1CCN(C(=O)CCCCOc2ccc(C3CCCN3C(=O)/C(C#N)=C/c3nccs3)cc2)CC1 (mixture of isomers) [Compound B82]	0.025 to 1 µM	40 to 70%
COc1cc(-c2cn(C)c(=O)c(C)c2C)cc(OC)c1CN1[C@H](C)CN(Cc2cccc3c2CCN(C(=O)/C(C#N)=C/C(C)(C)C)C3C)C[C@@H]1C (mixture of isomers) [Compound B114, (E/Z)-2-(5-(((3S,5R)-4-(2,6-dimethoxy-4-(1,4,5-trimethyl-6-oxo-1,6-dihydropyridin-3-yl)benzyl)-3,5-dimethylpiperazin-1-yl)methyl)-1-methyl-1,2,3,4-tetrahydroisoquinoline-2-carbonyl)-4,4-dimethylpent-2-enenitrile]	0.00125 to 0.01 µM	> 75%
COc1cc(-c2cn(C)c(=O)c(C)c2C)cc(OC)c1CN1CCN(Cc2cccc3c2CCN(C(=O)/C(C#N)=C/C2(C)CCOCC2)[C@H]3C)C2(CC2)C1 (single isomer, unassigned) [Compound B194, (E/Z)-2-(5-((7-(2,6-dimethoxy-4-(1,4,5-trimethyl-6-oxo-1,6-dihydropyridin-3-yl)benzyl)-4,7-diazaspiro[2.5]octan-4-yl)methyl)-1-methyl-1,2,3,4-tetrahydroisoquinoline-2-carbonyl)-3-(4-methyltetrahydro-2H-pyran-4-yl)acrylonitrile]	0.00125 to 0.01 µM	40 to 70%
COCC1(OC)c2cccc(CN3CCN(Cc4c(OC)cc(-c5cn(C)c(=O)c(C)c5C)cc4OC)CC34CC4)c2CCN1C(=O)/C(C#N)=C/C(C)(C)C (mixture of isomers) [Compound C18, (E/Z)-2-(5-((7-(2,6-dimethoxy-4-(1,4,5-trimethyl-6-oxo-1,6-dihydropyridin-3-yl)benzyl)-4,7-diazaspiro[2.5]octan-4-yl)methyl)-1-methoxy-1-(methoxymethyl)-1,2,3,4-tetrahydroisoquinoline-2-carbonyl)-4,4-dimethylpent-2-enenitrile]	0.00125 to 0.01 µM	> 75%
COc1cc(-c2cn(C)c(=O)c(C)c2C)cc(OC)c1CN1CCN(Cc2cccc3c2CCN(C(=O)/C(C#N)=C/C2(C(F)(F)F)CCC2)C3C)C2(CC2)C1 (mixture of isomers) [Compound B160, (E/Z)-2-[5-[[7-[[2,6-dimethoxy-4-(1,4,5-trimethyl-6-oxo-3-pyridyl)phenyl]methyl]-4,7-diazaspiro[2.5]octan-4-yl]methyl]-1-methyl-3,4-dihydro-1H-isoquinoline-2-carbonyl]-3-[1-(trifluoromethyl)cyclobutyl]prop-2-enenitrile]	0.00125 to 0.01 µM	> 75%
COc1cc(-c2cn(C)c(=O)c(C)c2C)cc(OC)c1CN1CCN(Cc2ccc3c(c2)[C@@H](C)N(C(=O)/C(C#N)=C/C(C)(C)CN2CCOCC2)CC3)C2(CC2)C1 (single isomer, unassigned) [Compound C40, (E/Z)-2-(7-((7-(2,6-dimethoxy-4-(1,4,5-trimethyl-6-oxo-1,6-dihydropyridin-3-yl)benzyl)-4,7-diazaspiro[2.5]octan-4-yl)methyl)-1-methyl-1,2,3,4-tetrahydroisoquinoline-2-carbonyl)-4,4-dimethyl-5-morpholinopent-2-enenitrile]	0.00125 to 0.01 µM	70 to 75%
COc1cc(-c2cn(C)c(=O)c(C)c2C)cc(OC)c1CN1CCN(Cc2cccc3c2CCN(C(=O)/C(C#N)=C\C(C)(C)CF)C3C(C)C)[C@@H](C)C1 (single isomer, unassigned) [Compound C26]	0.01 to 0.025 µM	> 75%
COc1cc(-c2cn(C)c(=O)c(C)c2C)cc(OC)c1CN1CCN(Cc2cccc3c2CCN(C(=O)/C(C#N)=C/C(C)(C)C)C3C(C)C)[C@@H](C)C1 (mixture of isomers) [Compound C14, (E/Z)-2-(5-(((S)-4-(2,6-dimethoxy-4-(1,4,5-trimethyl-6-oxo-1,6-dihydropyridin-3-yl)benzyl)-2-methylpiperazin-1-yl)methyl)-1-isopropyl-1,2,3,4-tetrahydroisoquinoline-2-carbonyl)-4,4-dimethylpent-2-enenitrile]	0.025 to 1 µM	> 75%
COc1cc(-c2cn(C)c(=O)c(C)c2C)cc(OC)c1CN1CCN(Cc2cccc3c2CCN(C(=O)/C(C#N)=C/C(C)(C)C)C3C)CC12CC2 (mixture of isomers) [Compound B103, (E/Z)-2-(5-((4-(2,6-dimethoxy-4-(1,4,5-trimethyl-6-oxo-1,6-dihydropyridin-3-yl)benzyl)-4,7-diazaspiro[2.5]octan-7-yl)methyl)-1-methyl-1,2,3,4-tetrahydroisoquinoline-2-carbonyl)-4,4-dimethylpent-2-enenitrile]	0.00125 to 0.01 µM	> 75%
